Common to all, as to assay type: cell-based
The subject of one assay is SNU719 cells. Briefly: MTS cell viability, inhibitor combined with EBV-specific T cells (Example 2). Particulars: combination with EBV-specific T cells (25:1) vs individual treatment, 48 hrs; AZD6244 0.5 μM, trematinib 1.0 μM, JQ1 5.0 μM.
Assay [1] concerns C17, C666.1, SNU719 and YCCLE1 cells. As to the kind of experiment: MTS cell viability, inhibitor combined with HLA matched allogeneic EBV-specific T cells (Example 3). To be noted: combination with HLA matched EBV-specific T cells 25:1 vs individual treatment, 48 hrs; MEK1/2 inhibitors 1 μM, JQ1 2.5 μM. As for the experimental part: The data are represented as the mean±SD from three independent experiments. P-values were calculated using one-way ANOVA: ns=not significant, *=p<0.05, **=p<0.01, ***=p<0.001 and ****=p<0.0001.
The data are represented as the mean±SD from three independent experiments.

Assay [2] concerns SNU719 and C666.1 cells. Briefly: Xcellegence cell growth curve (Example 3). To be noted: dual combination with HLA matched T cells 25:1 vs individual treatment, selumatinib 1 μM, JQ1 2.5 μM. As for the experimental part:
(§1) FIG. 11: Impact of dual combination of MEK1/2 inhibitor and HLA matched allogeneic EBV specific T cells. (A) Cell growth curve highlight the rate of cellular proliferation of SNU719 (upper panel) and C666.1 (lower panel) observed in the presence of HLA-matched EBV specific T cells (effector-to-target ratio of 25:1) and selumatinib (1 μM) individually and in combination, measured using Xcellegence. The effect of individual and dual combination on (B) cell proliferation based on Ki67 and (C) cell death based on active Caspase-3 of SNU719 expression (upper panel) and C666.1 (lower panel), performed using flow cytometry. The data are represented as the mean±SD from three independent experiments. P-values were calculated using one-way ANOVA: ns=not significant, *p<0.05, **p<0.01, ***p<0.001 and ****p<0.0001.
FIG. 15: Impact of dual combination of JQ1 inhibitor and HLA matched allogeneic EBV-specific T cells. The cell viability measured by MTS assay highlighting the impact of a HLA-matched EBV specific T cells at the effector-to-target ratio of 25:1 and JQ1 (2.5 μM) in suppressing cellular growth individually and in combination after 48 hrs of incubation with indicated (A) gastric (SNU719, YCCLE1 (upper panel)) and nasopharyngeal cancer cells (C17, C666.1 (lower panel)). […] P-values were calculated using one-way ANOVA: ns=not significant, *p<0.05, **p<0.01, ***p<0.001 and ****p<0.0001. […]

Assay [3] relates to SNU719 and C666.1 cells. Briefly: Flow cytometry of Ki67 and active Caspase 3 after individual and dual treatment. To be noted: dual treatment with HLA matched T cells vs individual treatment, 16 hours. As for the experimental part:
as §1
FIG. 15: Impact of dual combination of JQ1 inhibitor and HLA matched allogeneic EBV-specific T cells. The cell viability measured by MTS assay highlighting the impact of a HLA-matched EBV specific T cells at the effector-to-target ratio of 25:1 and JQ1 (2.5 μM) in suppressing cellular growth individually and in combination after 48 hrs of incubation with indicated (A) gastric (SNU719, YCCLE1 (upper panel)) and nasopharyngeal cancer cells (C17, C666.1 (lower panel)). (B) Cell growth curve highlight the rate of cellular proliferation of SNU719 (upper panel) and C666.1 (lower panel) observed in the presence of HLA-matched EBV specific T cells (effector-to-target ratio of 25:1) and JQ1 (2.5 μM) individually and in combination, measured using Xcellegence. The effect of individual and dual combination on (C) cell proliferation based on Ki67 and (D) cell death based on active Caspase-3 of SNU719 expression (upper panel) and C666.1 (lower panel), performed using flow cytometry. The data are represented as the mean±SD from three independent experiments. P-values were calculated using one-way ANOVA: ns=not significant, *p<0.05, **p<0.01, ***p<0.001 and ****p<0.0001.
Further, to validate the impact of the combination on the cell proliferation of the EBV-associated cancer cells, we challenged SNU719 and C666.1 cells with individual and dual combination using Xcellegence. […] We also performed phenotypic characterization, using flow cytometry, of SNU719 and C666.1 cells after 16 hours of individual and dual treatment in vitro.
Similarly, we targeted MYC-dependent cancer intrinsic pathway using JQ1 inhibitor by first determining the IC50 value of the inhibitor across nasopharyngeal and gastric cancer cell lines (with drug concertation ranging from 0.5 μM-10 μM). […]

Assay [4] has as its system SNU719 and C666.1 cells. As to the kind of experiment: MTS cell viability with HLA-mismatched versus HLA-matched T cells and inhibitors. To be noted: for effect of HLA-matched vs HLA-mismatched T cells in presence of inhibitor: MEK1/2 inhibitors 1 μM, JQ1 2.5 μM, T cells 25:1; for cell viability: 48 hrs. As to the method:
FIG. 12: Combination of MEK1/2 inhibitors with HLA mismatched allogeneic-specific T cells. […] The data are represented as the mean±SD from three independent experiments. P-values were calculated using one-way ANOVA: ns=not significant, *=p<0.05, **=p<0.01, ***=p<0.001 and ****=p<0.0001.
FIG. 16: Combination of JQ1 inhibitors with HLA mismatched all T cells. […] The data are represented as the mean±SD from three independent experiments. P-values were calculated using one-way ANOVA: ns=not significant, *=p<0.05, **=p<0.01, ***=p<0.001 and ****=p<0.0001.
Next, we wanted to determine the specificity of the combination and as such we challenged SNU719 and C666.1 cells with HLA-mismatched allogeneic T cells alongside MEK1/2 inhibitors (both selumetanib and trematinib), individually and in combination.
Next, we wanted to determine the specificity of the combination and as such we challenged SNU719 and C666.1 cells with HLA-mismatch allogeneic T cells alongside JQ1 inhibitor individually and in combination.

The mark [5] stands for this setting: combination with HLA-mismatch allogeneic T cells 25:1 vs DMSO treated control.
The mark [6] stands for this setting: combination with HLA-mismatch allogeneic T cells 25:1 vs inhibitor alone.

Each structure is given as a SMILES string.

Procedure for SNU719 cells: Cell viability assay was performed using the CellTiter 96® AQueous one cell viability assay reagent (Promega, WI, USA) for three biological replicates per EBV-associated cancer cell lines in triplicate. Briefly, the cancer cells (target cells) were plated at a density of 5000 cells per well in an overall media volume of 200 μL on a 96-well tissue-culture plate (BD Falcon™). The effector AdE1-LMPpoly transfected T cells were freshly thawed in RPMI-1640 with 10% FCS and 120 IU/mL of recombinant IL-2 at 37° C. and 50% CO2. Post 24 hrs of plating and incubation at 37° C. and 50% CO2, the effector T cells were mixed to the target cells at a gradient ratio of effector to target (E:T) of 5:1-100:1. The exact number of T cells (To) used per E:T ratio (ET) was independently used as control alongside PBS treated target cells (Es) and sole media (M0). After 24 hrs of incubation at 37° C. and 50% CO2, MTS was added to each well (1:100 dilution in media) and was incubated for 1 hour following which the plate was centrifuged at 1,200×g at room temperature for 5 min and absorbance of the mixture at an optical density of 490 nm was measured via a microplate reader. The relative cell viability was calculated using the following formula: […]

On to `Cc1sc2c(c1C)C(c1ccc(Cl)cc1)=N[C@@H](CC(=O)OC(C)(C)C)c1nnc(C)n1-2` [JQ1], for which the “cell viability of SNU719” value with SNU719 cells is “significantly reduced”. The cell viability result in assay [1] is recorded as “significantly reduced”; with SNU719 and C666.1 cells [4] (setting [5]) it was “significant reduction in cell viability”; with SNU719 and C666.1 cells [4] (setting [6]), “no significant reduction in cell viability”. Moreover, the “rate of cell death (Xcellegence)” value in the assay on SNU719 and C666.1 cells [2] is given as “faster cell death”. Further, in the assay with SNU719 and C666.1 cells [3], the “cell death (Active Caspase 3 staining)” value is reported as “significant cell death”. Also, the “cell proliferation (Ki67+ staining)” value with SNU719 and C666.1 cells [3] is on record as “significant loss of cell proliferation”. The “effect of HLA-matched vs HLA-mismatched T cells in presence of inhibitor” value in the assay with SNU719 and C666.1 cells [4] was “significantly amplified”.

Take `Cn1cnc2c(F)c(Nc3ccc(Br)cc3Cl)c(C(=O)NOCCO)cc21` [selumetanib]: the “cell viability of SNU719” value in the assay with SNU719 cells is “significantly reduced”. For the same molecule, the cell viability entry in assay [1] was “significantly reduced”; in the assay with SNU719 and C666.1 cells [4] (setting [5]), “significant reduction in cell viability”; with SNU719 and C666.1 cells [4] (setting [6]), “no significant reduction in cell viability”. The “rate of cell death (Xcellegence)” value in the assay with SNU719 and C666.1 cells [2] is listed as “faster cell death”. Further, the “cell death (Active Caspase 3 staining)” value in the assay on SNU719 and C666.1 cells [3] was “significant cell death”. For the same molecule, the “cell proliferation (Ki67+ staining)” value in the assay on SNU719 and C666.1 cells [3] is “significant loss of cell proliferation”. Also, in the assay with SNU719 and C666.1 cells [4], the “effect of HLA-matched vs HLA-mismatched T cells in presence of inhibitor” value was “significantly amplified”.
